Laboratory results as given in patent US20240269139A1, “COMPOUNDS FOR TARGETED PROTEIN DEGRADATION OF KINASES” (DANA-FARBER CANCER INSTITUTE, INC., priority 2020, published 2024).
Like-named read-outs stand apart in the source and are kept apart here.

How the values were obtained:
[1] = target: extended human kinome (kinase-like proteins) (Homo sapiens, UniProt P27144); assay: Whole cell quantitative proteomics: extended kinome hits
[2] = target: extended human kinome (kinase-like proteins) (Homo sapiens, UniProt Q9UIJ7); assay: as above
extended human kinome (kinase-like proteins) (Homo sapiens, UniProt Q9UIJ7), sequence (Q9UIJ7 whole entry): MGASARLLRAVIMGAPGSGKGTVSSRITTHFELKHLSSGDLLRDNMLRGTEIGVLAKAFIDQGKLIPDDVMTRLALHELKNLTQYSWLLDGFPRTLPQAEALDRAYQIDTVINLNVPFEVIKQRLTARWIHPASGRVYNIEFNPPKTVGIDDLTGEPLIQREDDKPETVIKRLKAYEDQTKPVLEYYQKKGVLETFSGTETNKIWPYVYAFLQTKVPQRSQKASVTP

[3] = target: T1, extended human kinome (kinase-like proteins) (Homo sapiens, UniProt Q7L8L6); assay: as above; conditions: Accession Q7L8L6
T1 sequence (Q7L8L6 28-764): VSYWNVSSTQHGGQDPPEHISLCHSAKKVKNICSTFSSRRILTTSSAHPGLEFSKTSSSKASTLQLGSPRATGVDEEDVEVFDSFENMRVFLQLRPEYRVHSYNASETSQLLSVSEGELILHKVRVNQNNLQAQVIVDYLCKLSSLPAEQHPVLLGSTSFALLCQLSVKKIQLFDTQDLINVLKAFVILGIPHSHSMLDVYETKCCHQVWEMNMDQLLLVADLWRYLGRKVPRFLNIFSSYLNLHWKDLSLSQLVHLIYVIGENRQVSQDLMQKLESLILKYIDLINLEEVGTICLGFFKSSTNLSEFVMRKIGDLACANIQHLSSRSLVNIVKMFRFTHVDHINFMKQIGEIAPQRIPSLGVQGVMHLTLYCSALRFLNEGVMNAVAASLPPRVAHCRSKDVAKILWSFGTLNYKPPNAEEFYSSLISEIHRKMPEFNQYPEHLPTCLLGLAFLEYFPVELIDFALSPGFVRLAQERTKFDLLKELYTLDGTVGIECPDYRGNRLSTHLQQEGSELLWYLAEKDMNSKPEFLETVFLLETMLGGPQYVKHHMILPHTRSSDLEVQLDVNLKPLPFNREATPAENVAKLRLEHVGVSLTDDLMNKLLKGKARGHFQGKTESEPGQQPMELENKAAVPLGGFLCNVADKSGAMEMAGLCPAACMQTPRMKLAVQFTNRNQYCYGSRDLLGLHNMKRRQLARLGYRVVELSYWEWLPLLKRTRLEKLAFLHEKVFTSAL

[4] = target: extended human kinome (kinase-like proteins) (Homo sapiens, UniProt Q16875); assay: as above; conditions: Accession Q16875, experiment wp133
extended human kinome (kinase-like proteins) (Homo sapiens, UniProt Q16875), sequence (Q16875 whole entry): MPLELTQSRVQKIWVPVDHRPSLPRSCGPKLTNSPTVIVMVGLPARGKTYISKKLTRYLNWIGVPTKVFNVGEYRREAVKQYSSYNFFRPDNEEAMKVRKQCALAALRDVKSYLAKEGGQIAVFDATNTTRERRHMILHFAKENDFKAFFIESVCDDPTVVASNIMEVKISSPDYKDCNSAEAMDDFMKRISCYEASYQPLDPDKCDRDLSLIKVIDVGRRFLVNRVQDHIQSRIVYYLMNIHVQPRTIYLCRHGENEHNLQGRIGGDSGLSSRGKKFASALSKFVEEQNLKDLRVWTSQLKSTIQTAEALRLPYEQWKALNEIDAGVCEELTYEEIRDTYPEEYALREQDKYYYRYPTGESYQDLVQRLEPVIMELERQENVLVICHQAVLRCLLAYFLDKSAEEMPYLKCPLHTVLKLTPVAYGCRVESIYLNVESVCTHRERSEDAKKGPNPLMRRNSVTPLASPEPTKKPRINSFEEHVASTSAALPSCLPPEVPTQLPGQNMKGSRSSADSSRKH

[5] = target: T2, extended human kinome (kinase-like proteins) (Homo sapiens, UniProt Q53R41); assay: as above
T2 sequence (Q53R41 1-847): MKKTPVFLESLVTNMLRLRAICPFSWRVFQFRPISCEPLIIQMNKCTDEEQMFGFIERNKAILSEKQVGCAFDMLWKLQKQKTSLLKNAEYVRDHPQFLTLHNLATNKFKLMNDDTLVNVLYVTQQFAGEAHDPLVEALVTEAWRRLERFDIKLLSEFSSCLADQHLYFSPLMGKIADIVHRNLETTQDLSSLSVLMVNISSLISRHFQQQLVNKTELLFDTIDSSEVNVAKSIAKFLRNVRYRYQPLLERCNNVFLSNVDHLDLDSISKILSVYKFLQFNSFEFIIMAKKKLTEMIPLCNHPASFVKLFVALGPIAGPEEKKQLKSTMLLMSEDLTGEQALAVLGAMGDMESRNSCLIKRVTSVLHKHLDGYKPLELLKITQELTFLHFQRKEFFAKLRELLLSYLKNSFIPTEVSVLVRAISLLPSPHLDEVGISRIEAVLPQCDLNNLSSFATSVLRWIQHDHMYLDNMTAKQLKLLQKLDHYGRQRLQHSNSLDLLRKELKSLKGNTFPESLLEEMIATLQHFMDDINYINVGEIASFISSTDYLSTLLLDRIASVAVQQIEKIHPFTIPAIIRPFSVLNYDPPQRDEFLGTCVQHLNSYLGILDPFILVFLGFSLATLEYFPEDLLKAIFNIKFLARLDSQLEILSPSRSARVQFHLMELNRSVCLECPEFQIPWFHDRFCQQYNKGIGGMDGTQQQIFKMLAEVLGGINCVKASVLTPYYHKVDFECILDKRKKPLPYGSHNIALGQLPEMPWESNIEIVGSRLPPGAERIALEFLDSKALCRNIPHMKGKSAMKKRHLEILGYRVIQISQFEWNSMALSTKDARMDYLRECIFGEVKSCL

[6] = target: T3, protein kinases (human kinome) (Homo sapiens, UniProt O94768); format: cell-based; conditions: for logFC STK17B (O94768): direction down; for logFC: STK17B (O94768)
T3 sequence (O94768 1-372): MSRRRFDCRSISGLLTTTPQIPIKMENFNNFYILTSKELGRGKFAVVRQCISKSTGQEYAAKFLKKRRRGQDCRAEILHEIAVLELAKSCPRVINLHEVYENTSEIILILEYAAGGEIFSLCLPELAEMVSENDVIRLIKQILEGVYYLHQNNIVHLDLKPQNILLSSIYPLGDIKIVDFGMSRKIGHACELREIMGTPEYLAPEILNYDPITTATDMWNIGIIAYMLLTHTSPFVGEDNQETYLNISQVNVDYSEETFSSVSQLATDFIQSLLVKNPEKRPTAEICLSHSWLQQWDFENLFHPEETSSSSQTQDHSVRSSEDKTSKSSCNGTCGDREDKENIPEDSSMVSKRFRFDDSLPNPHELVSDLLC

extended human kinome (kinase-like proteins) (Homo sapiens, UniProt P27144), sequence (P27144 whole entry): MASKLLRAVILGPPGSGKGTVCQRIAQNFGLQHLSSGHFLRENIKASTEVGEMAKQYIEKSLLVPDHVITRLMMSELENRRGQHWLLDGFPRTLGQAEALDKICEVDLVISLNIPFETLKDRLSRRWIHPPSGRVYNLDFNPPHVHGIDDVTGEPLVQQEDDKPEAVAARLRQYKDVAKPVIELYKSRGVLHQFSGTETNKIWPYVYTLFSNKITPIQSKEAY

Q: CC(C)S(=O)(=O)c1ccccc1Nc1nc(Nc2ccc(N3CCN(CCOCCNC(=O)CNc4cccc5c4C(=O)N(C4CCC(=O)NC4=O)C5=O)CC3)cc2)ncc1Cl (centres unmarked) [SK.3.91] was tested. Which “logFC AK4 (P27144)” value ([1]; experiment wp160, 1 hr) did it give?
A: Its value is −0.8232.

Q: What about the “logFC AK3 (Q9UIJ7-1)” value ([2]; experiment wp160, 1 hr) of the same compound?
A: Its value is −0.7434.

Q: And the “logFC FASTKD5” value ([3]; experiment wp160, 1 hr)?
A: The value was −0.8306.

Q: And the “logFC PFKFB3” value ([4]; 2 hr)?
A: Its value is −0.3539.

Q: What about the “logFC PFKFB3” value ([4]; 4 hr) of the same compound?
A: The value was −0.6035.

Q: And the “logFC FASTKD1 (Q53R41)” value ([5]; experiment wp160, 1 hr)?
A: Its value is −0.8675.

Q: And the “logFC STK17B (O94768)” value ([6]; Experiment wp016, 1 uM)?
A: The value was −0.327.

Q: What about the “logFC STK17B (O94768)” value ([6]; Experiment wp133, 4 hr) of the same compound?
A: The value was −0.545.

Q: What about the logFC ([6]; experiment wp016, 1 uM) of the same compound?
A: The logFC was −0.327.

Q: What about the logFC ([6]; experiment wp133, 4 hr) of the same compound?
A: Its logFC is −0.545.

Q: How did the “logFC AK4 (P27144)” value ([1]; experiment wp137) turn out when CC(C)(C)c1nc(-c2cccc(NS(=O)(=O)c3c(F)cccc3F)c2F)c(-c2ccnc(NCCOCCNC(=O)CCOCCOCCNc3cccc4c3CN(C3CCC(=O)NC3=O)C4=O)n2)s1 (centres unmarked) [DD.03.107] was run?
A: Its value is −0.3942.

Q: And the “logFC AK4 (P27144)” value ([1]; experiment wp147, 1 uM)?
A: Its value is −0.3992.

Q: And the “logFC AK4 (P27144)” value ([1]; experiment wp147, 2 uM)?
A: Its value is −0.4045.

Q: And the “logFC AK4 (P27144)” value ([1]; experiment wp147, 4 uM)?
A: The value was −0.898.

Q: And the “logFC AK3 (Q9UIJ7-1)” value ([2]; experiment wp147, 1 uM)?
A: The value was −0.5265.

Q: And the “logFC AK3 (Q9UIJ7-1)” value ([2]; experiment wp147, 2 uM)?
A: The value was −0.5607.

Q: What about the “logFC AK3 (Q9UIJ7-1)” value ([2]; experiment wp147, 4 uM) of the same compound?
A: The value was −1.001.

Q: And the “logFC FASTKD5” value ([3]; experiment wp147, 1 uM)?
A: The value was −0.5985.

Q: What about the “logFC FASTKD5” value ([3]; experiment wp147, 2 uM) of the same compound?
A: The value was −0.6839.

Q: And the “logFC FASTKD5” value ([3]; experiment wp147, 4 uM)?
A: The value was −1.268.

Q: What about the “logFC FASTKD1 (Q53R41)” value ([5]; experiment wp147, 1 uM) of the same compound?
A: The value was −0.58.

Q: What about the “logFC FASTKD1 (Q53R41)” value ([5]; experiment wp147, 2 uM) of the same compound?
A: The value was −0.5044.

Q: What about the “logFC FASTKD1 (Q53R41)” value ([5]; experiment wp147, 4 uM) of the same compound?
A: The value was −0.9447.
